Data from patent US10604527B2, “Pyrazine compounds for the treatment of hepatitis B infection” (Hoffmann-La Roche Inc., priority 2016, dated 2020).

Tested on: HBV
Experiment: HBV inhibition assay in HepG2.2.15 cells (extracellular HBV DNA by qPCR)
Assay type: cell-based
Conditions: Hepatitis B virus, 120 h, extracellular HBV DNA in culture supernatant by qPCR, five days after compound treatment
Experimental: HepG2.2.15 is a stably-transfected cell line containing the HBV genome. It is derived from the hepatoblastoma cell line Hep G2 (American Type Culture Collection, ATCC® HB-8065™) by the published procedures described in reference: M A Selles et al. Proc. Natl. Acad. Sci. USA 1987, 84, 1005-1009. The cell line was maintained in Dulbecco's modified Eagle's medium (DMEM)-F12 medium supplemented with 10% fetal bovine serum, 20 mM L-glutamine, 0.1 mM NEAA, 50 U/mL penicillin, 50 μg/mL streptomycin, and 0.3 mg/mL of G418.
HepG2.2.15 cells were seeded into 96-well plates at a density of 3×10^4 cells per well in 100 μL DMEM/F12 media (Life Science, Cat. #: 11320-033) supplemented with 2.5% fetal bovine serum, 20 mM L-glutamine, 0.1 mM NEAA, 50 U/mL penicillin, 50 U/mL streptomycin and cultured overnight at 37° C. The test compounds were serially half-log diluted in DMSO, then diluted 100 times in culture media. 100 μL diluted solution of tested compounds were added into the plates to reach 0.5% final concentration of DMSO in every well. Five days after compound treatment, culture supernatant was collected for further analysis.
For quantitative PCR detection of extracellular HBV DNA, culture supernatant was processed by 500 μg/mL Proteinase K (Sigma, Cat. #: P2308) digestion at 50° C. for 1 hour. After heat inactivation of the enzyme at 95° C. for 15 minutes, the samples were subjected to HBV DNA quantification by qPCR. The effective compound concentration at which HBV replication inhibited by 50% (EC50) was determined.

Going from `C[C@H]1Cn2ncc(S(=O)(=O)N[C@H]3CCOC3)c2CN1C(=O)Nc1ccc(F)c(Cl)c1` [Example 26, (6S)-N-(3-chloro-4-fluoro-phenyl)-6-methyl-3-[[(3S)-tetrahydrofuran-3-yl]sulfamoyl]-6,7-dihydro-4H-pyrazolo[1,5-a]pyrazine-5-carboxamide] to `C[C@H]1Cn2ncc(S(=O)(=O)C3CCOCC3)c2CN1C(=O)Nc1ccc(F)c(Cl)c1` [Example 15, (6S)-N-(3-chloro-4-fluoro-phenyl)-6-methyl-3-tetrahydropyran-4-ylsulfonyl-6,7-dihydro-4H-pyrazolo[1,5-a]pyrazine-5-carboxamide], the EC50 falls from 365 nM to 97 nM (3.8-fold). The second is the more potent here.

First: C[C@H]1Cn2ncc(S(=O)(=O)N[C@@H]3CCOC3)c2CN1C(=O)Nc1cc(F)c(F)c(F)c1 [Example 30, (6S)-6-methyl-3-[[(3R)-tetrahydrofuran-3-yl]sulfamoyl]-N-(3,4,5-trifluorophenyl)-6,7-dihydro-4H-pyrazolo[1,5-a]pyrazine-5-carboxamide]
Second: C[C@H]1Cn2ncc(S(=O)(=O)C3CCOC3)c2CN1C(=O)Nc1cc(F)c(F)c(F)c1 (stereo partly drawn) [Example 16, (6S)-6-methyl-3-tetrahydrofuran-3-ylsulfonyl-N-(3,4,5-trifluorophenyl)-6,7-dihydro-4H-pyrazolo[1,5-a]pyrazine-5-carboxamide]
The EC50 of the first is 2-fold higher: 156 nM for the first, 77 nM for the second. The second is the more potent here.

Going from `CCS(=O)(=O)N(C)c1cnn2c1CN(C(=O)Nc1cc(F)c(F)c(F)c1)[C@@H](C)C2` [Example 40, (6S)-3-[ethylsulfonyl(methyl)amino]-6-methyl-N-(3,4,5-trifluorophenyl)-6,7-dihydro-4H-pyrazolo[1,5-a]pyrazine-5-carboxamide] to `COCCS(=O)(=O)N(C)c1cnn2c1CN(C(=O)Nc1cc(F)c(F)c(F)c1)[C@@H](C)C2` [Example 39, (6S)-3-[2-methoxyethylsulfonyl(methyl)amino]-6-methyl-N-(3,4,5-trifluorophenyl)-6,7-dihydro-4H-pyrazolo[1,5-a]pyrazine-5-carboxamide], the EC50 rises from 169 nM to 664 nM (3.9-fold). The first is the more potent here.

Going from `C[C@H]1Cn2ncc(N(C)S(=O)(=O)C3CC3)c2CN1C(=O)Nc1cc(F)c(F)c(F)c1` [Example 41, (6S)-3-[cyclopropylsulfonyl(methyl)amino]-6-methyl-N-(3,4,5-trifluorophenyl)-6,7-dihydro-4H-pyrazolo[1,5-a]pyrazine-5-carboxamide] to `CC1Cn2ncc(S(=O)(=O)C3CCCC3)c2CN1C(=O)Nc1ccc(F)c(Cl)c1` (stereo not shown) [Example 11, N-(3-chloro-4-fluoro-phenyl)-3-cyclopentylsulfonyl-6-methyl-6,7-dihydro-4H-pyrazolo[1,5-a]pyrazine-5-carboxamide], the EC50 falls from 86 nM to 11 nM (7.8-fold).

Going from `C[C@H]1Cn2ncc(S(=O)(=O)C3CCOC3)c2CN1C(=O)Nc1ccnc(Cl)c1` (stereo partly drawn) [Example 17, (6S)-N-(2-chloro-4-pyridyl)-6-methyl-3-tetrahydrofuran-3-ylsulfonyl-6,7-dihydro-4H-pyrazolo[1,5-a]pyrazine-5-carboxamide] to `C[C@H]1Cn2ncc(OC3CCNC3=O)c2CN1C(=O)Nc1ccc(F)c(Cl)c1` (stereo partly drawn) [Example 5, (6S)-N-(3-chloro-4-fluoro-phenyl)-6-methyl-3-(2-oxopyrrolidin-3-yl)oxy-6,7-dihydro-4H-pyrazolo[1,5-a]pyrazine-5-carboxamide], the EC50 falls from 871 nM to 434 nM (2-fold). The second is the more potent here.
